Test results from US10538482B2, “Adamantane and memantine derivatives as peripheral NMDA receptor antagonists” (Institut National de la Santé et de la Recherche Médicale …, priority 2015, dated 2020).
“And” between values parts separate entries of the source, which are not always exact repeats. Equal entries are not always repeated. Where two headings read alike, the source gives them in different places. Blank lines part the entries; values can stand above or below the compound they belong to.

Key:
[1] = system: NMDAR; assay: NMDAR blocking activity, whole-cell voltage clamp (patch-clamp) recordings from rat hippocampal neurons; type: cell-based; conditions: read-out: IC50 (NMDAR antagonist activity)
[2] = In vivo brain penetration measurement in rat (plasma and brain concentration, Kp"brain"); conditions: for Brain concentration / Plasma concentration / concentration at 3.75 h: male Sprague-Dawley rat, end of 3.75 h constant-rate i.v. infusion; for Brain concentration / Plasma concentration / concentration at 3.75 h / Kp at 3.75 h / Kp"brain" (total brain/plasma concentration ratio at steady state): 4 mg/kg; for concentration at 3.75 h / Kp at 3.75 h: male, Sprague-Dawley, iv; for Kp at 3.75 h: brain/plasma; for Kp at 3.75 h / Kp"brain" (total brain/plasma concentration ratio at steady state): 3.75 h i.v. infusion
Protocol: The femoral vein of male Sprague-Dawley rats (CRL) weighing around 250 g was surgically catheterized at least 72 hours prior to the experiment. The drug was administered as 3.75 h constant-rate intravenous infusion to approach steady state, using a flow rate of 0.8 mL/h, corresponding to dosage of 4 mg/kg (1.067 mg/kg/h, i.e. 1 mg/rat of ˜250 g). The vehicle used was saline.
At the end of the infusion, the rats were anesthetized by inhalation of isoflurane, and blood was collected in a heparinized tube from the abdominal aorta, followed by immediate rinsing of the bloodstream for 2 minutes with saline at a rate of 15 mL/min using a peristaltic pump and left intraventricle cannula (flowing via right atrium). The brain (without cerebellum) was removed, and transferred in a tube and homogenized in two volumes of deionized water using a tissue homogenizer (Precellys24). All samples were stored at −20° C. until analysis. Plasma and brain homogenate sample preparation was performed using solid phase extraction on OASIS® WCX (Waters) and compounds were quantified by reversed phase liquid chromatography and positive electrospray ionization and multiple reaction monitoring mass spectrometry (LC-MS/MS).
This parameter is defined as the ratio of concentrations in brain and blood, Kp“brain” (Cbrain/Cplasma) or log(BB). Log(BB) is the logarithm of the ratio of the steady-state total concentration of a compound in the brain to that in the blood/plasma, log(BB)=log(Cbrain/Cplasma). This parameter depends upon the passive diffusion characteristics, the implication of membrane transporters at the BBB level and the relative drug binding affinity differences between the plasma proteins and brain tissue. Generally, compounds with a brain/plasma ratio of greater than 0.3-0.5 are considered to have sufficient access to the CNS, compounds with a value greater than 1 freely cross the BBB, whereas compounds with a brain/plasma ratio smaller than 0.1 may be unable to enter the CNS.
Thus, the brain penetration of memantine and Compound N^o1 was measured in rat by establishing the brain/plasma ratio, Kp“brain” in triplicate (3 rats/Compound). The three tables below (Tables 1-3) show the results on plasma concentration, brain concentration and calculation of the Kp“brain” for the two compounds memantine and Compound N^° 1.

[3] = rat hippocampal neurons, -60 mV, currents evoked by 100 μM NMDA and 20 μM D-serine
[4] = rat, brain, mean of 3 rats, read-out: Brain concentration, Mean
[5] = rat, rat, mean of 3 rats, read-out: Kp"brain", Mean
[6] = rat, plasma, individual rats, read-out: Plasma concentration
[7] = rat, plasma, mean of 3 rats, read-out: Plasma concentration, Mean

IC50 [1, 3]: 29 µM
SMILES: CCC[N+](C)(C)C12CC3CC(C)(CC(C)(C3)C1)C2 [Compound No3, N-Propyl-N,N-3,5-tetramethyladamantan-1-ammonium iodide]

IC50 [1, 3]: 110 µM
SMILES: CCCC[N+](C)(C)C12CC3CC(C)(CC(C)(C3)C1)C2 [Compound No4, N-Butyl-N,N-3,5-tetramethyladamantan-1-ammonium iodide]

IC50 [1, 3]: 35.2 µM
SMILES: CC12CC3CC(C)(C1)CC([N+](C)(C)CC1CCCCC1)(C3)C2 [Compound No9, N-(Cyclohexylmethyl)-N,N-3,5-tetramethyladamantan-1-ammonium iodide]

IC50 ([1]; rat hippocampal neurons, -60 mV, currents evoked by 100 μM NMDA and 20 μM D-serine, listed as Compound N^o1′): ~10 µM
IC50 [1, 3]: 11.6 µM
SMILES: CC12CC3CC(C)(C1)CC([N+](C)(C)C)(C3)C2 [Compound No1′]

IC50 [1, 3]: 18 µM
SMILES: CC[N+](C)(C)C12CC3CC(C)(CC(C)(C3)C1)C2 [Compound No2, N-Ethyl-N,N-3,5-tetramethyladamantan-1-ammonium iodide]

Brain concentration ([2]; individual rats): 0.90 ng/g and 3.57 ng/g and 3.03 ng/g
Plasma concentration ([2]; individual rats): 23.11 ng/mL and 24.52 ng/mL
concentration at 3.75 h [2, 4]: 2.5 ng/g
Kp at 3.75 h [2, 5]: 0.091
concentration at 3.75 h [2, 6]: 34.8 ng/mL
concentration at 3.75 h [2, 7]: 27.5 ng/mL
Kp"brain" (total brain/plasma concentration ratio at steady state) ([2]; rat, individual rats): 0.15 and 0.09 and 0.04
IC50 [1, 3]: 9.9 µM
SMILES: CC12CC3CC(C)(C1)CC([N+](C)(C)C)(C3)C2 [Compound No1, N,N,N,3,5-Pentamethyladamantan-1-ammonium iodide]

IC50 [1, 3]: 3.5 µM
SMILES: CC12CC3CC(C)(C1)CC([N+](C)(C)CC1CC1)(C3)C2 [Compound No8, N-(Cyclopropylmethyl)-N,N-3,5-tetramethyladamantan-1-ammonium iodide]

IC50 [1, 3]: 14.3 µM
SMILES: CC(C)CC[N+](C)(C)C12CC3CC(C)(CC(C)(C3)C1)C2 [Compound No6, N-isoPentyl-N,N-3-5-tetramethyladamantan-1-ammonium iodide]

SMILES: CC12CC3CC(C)(C1)CC(N)(C3)C2 [Memantine, memantine]
Brain concentration ([2]; individual rats): 2977 ng/g and 3237 ng/g
Plasma concentration ([2]; individual rats): 88.69 ng/mL and 94.85 ng/mL
concentration at 3.75 h ([2]; rat, brain, individual rats, read-out: Brain concentration): 3340 ng/g
concentration at 3.75 h [2, 4]: 3180 ng/g
Kp at 3.75 h ([2]; rat, rat, individual rats, read-out: Kp"brain" (total brain/plasma concentration ratio at steady state)): 27.1
Kp at 3.75 h [2, 5]: 31.6
concentration at 3.75 h [2, 6]: 123 ng/mL
concentration at 3.75 h [2, 7]: 102 ng/mL
Penetration of the BBB / CNS (in words) ([2]; rat): penetrates freely across the BBB
Kp"brain" (total brain/plasma concentration ratio at steady state) ([2]; rat, individual rats): 33.57 and 34.13
IC50 [1]: 1 µM
